Laboratory results reported in patent US7932283B2, “Fungicide N-cyclopropyl-sulfonylamide derivatives” (Bayer Cropscience AG, priority 2006, dated 2011).

Experiment: logP by HPLC on reversed-phase column (C 18), EEC Directive 79/B31 Annex V.A8, methods A and B
Format: physicochemical
Details: reversed-phase HPLC column (C 18), linear gradient 10% to 90% acetonitrile
Protocol: Calibration was carried out using unbranched alkan-2-ones (having 3 to 16 carbon atoms) with known logP values (determination of the logP values by the retention times using linear interpolation between two successive alkanones).

[1] = LogP method B: HPLC reversed-phase C 18, 40° C., 0.1% aqueous formic acid / acetonitrile
[2] = LogP method A: HPLC reversed-phase C 18, 43° C., 0.1% aqueous phosphoric acid / acetonitrile

SMILES | chromatographic logP [1] | chromatographic logP [2]
COc1nn(C)cc1C(=O)N(C1CC1)S(=O)(=O)c1ccc(Oc2ccc(Br)cc2)cc1Br [Compound 474] | 3.9 | 
COc1nn(C)cc1C(=O)N(C1CC1)S(=O)(=O)c1ccc(Oc2ccc(C(F)(F)F)cc2)cc1Br [Compound 475] | 3.9 | 
COc1nn(C)cc1C(=O)N(C1CC1)S(=O)(=O)c1ccc(Oc2cccc(OC(F)(F)F)c2)cc1Br [Compound 476] | 4 | 
COc1nn(C)cc1C(=O)N(C1CC1)S(=O)(=O)c1ccc(Oc2ccc(O)cc2Cl)cc1Br [Compound 477] | 4.1 | 
COc1nn(C)cc1C(=O)N(C1CC1)S(=O)(=O)c1ccc(Oc2ccc(O)c(O)c2)cc1Br [Compound 478] | 4.2 | 
COc1nn(C)cc1C(=O)N(C1CC1)S(=O)(=O)c1ccc(Oc2ccc(Cl)c(C(F)(F)F)c2)cc1Br [Compound 479] | 4.2 | 
COc1nn(C)cc1C(=O)N(C1CC1)S(=O)(=O)c1ccc(Oc2ccc(Br)c(O)c2)cc1Br [Compound 480] | 4.2 | 
COc1nn(C)cc1C(=O)N(C1CC1)S(=O)(=O)c1ccc(Oc2cc(O)cc(O)c2)cc1Br [Compound 481] | 4.3 | 
CCCCCc1ccc(Oc2ccc(S(=O)(=O)N(C(=O)c3cn(C)nc3OC)C3CC3)c(Br)c2)cc1 [Compound 482] | 5.4 | 
CCOc1nn(C)cc1C(=O)N(C1CC1)S(=O)(=O)c1ccc(Oc2ccc(C)cc2)cc1Cl [Compound 525] | 2.2 | 
CCOc1nn(C)cc1C(=O)N(C1CC1)S(=O)(=O)c1ccc(Oc2ccc(C)nc2)cc1Br [Compound 526] | 2.3 | 
CCOc1nn(C)cc1C(=O)N(C1CC1)S(=O)(=O)c1ccc(Oc2ccc(OC)c(OC)c2)cc1O [Compound 527] | 3.2 | 
CCOc1nn(C)cc1C(=O)N(C1CC1)S(=O)(=O)c1ccc(Oc2ccc(OC)cc2)cc1O [Compound 529] | 3.5 | 
CCOc1nn(C)cc1C(=O)N(C1CC1)S(=O)(=O)c1ccc(OC2=CC(N(C)C)=CCC2)cc1O [Compound 532] | 3.8 | 
CCOc1nn(C)cc1C(=O)N(C1CC1)S(=O)(=O)c1ccc(Oc2cccc(O)c2)cc1O [Compound 534] | 3.9 | 
CCOc1nn(C)cc1C(=O)N(C1CC1)S(=O)(=O)C1C=CC(Oc2ccc(F)c(O)c2)=CC1O (centres unmarked) [Compound 536] | 4 | 

SMILES | chromatographic logP [1] | chromatographic logP [2]
CCOc1nn(C)cc1C(=O)N(C1CC1)S(=O)(=O)c1ccc(Oc2ccccc2O)c(O)c1 [Compound 537] | 4.1 | 
CCOc1nn(C)cc1C(=O)N(C1CC1)S(=O)(=O)c1ccc(Oc2cccc(Br)c2)cc1Br [Compound 540] | 4.2 | 
CCOc1nn(C)cc1C(=O)N(C1CC1)S(=O)(=O)c1ccc(Oc2ccc(Br)cc2)cc1Br [Compound 541] | 4.2 | 
CCOc1nn(C)cc1C(=O)N(C1CC1)S(=O)(=O)c1ccc(Oc2ccc(O)cc2Cl)cc1O [Compound 543] | 4.3 | 
CCOc1nn(C)cc1C(=O)N(C1CC1)S(=O)(=O)C1C=CC(Oc2ccc(Br)c(O)c2)=CC1O (centres unmarked) [Compound 544] | 4.3 | 
CCOc1nn(C)cc1C(=O)N(C1CC1)S(=O)(=O)C1C=CC(Oc2cccc(C(F)(F)F)c2)=C(O)C1 (centres unmarked) [Compound 549] | 4.4 | 
CCOc1nn(C)cc1C(=O)N(C1CC1)S(=O)(=O)c1ccc(Oc2ccc(Cl)c(C(F)(F)F)c2)cc1Br [Compound 553] | 4.5 | 
CCCCCc1ccc(Oc2ccc(S(=O)(=O)N(C(=O)c3cn(C)nc3OCC)C3CC3)c(Br)c2)cc1 [Compound 560] | 5.6 | 
Cc1nn(C)c(C(=O)N(C2CC2)S(=O)(=O)c2cccc(O)c2O)c1Cl [Compound 586] | 3.7 | 
Cc1noc(C)c1C(=O)N(C1CC1)S(=O)(=O)c1ccc(C(F)(F)F)cc1 [Compound 588] |  | 3.46
CCc1onc(C(C)C)c1C(=O)N(C1CC1)S(=O)(=O)c1cccc(O)c1 [Compound 589] |  | 4.18
CCc1onc(C(C)C)c1C(=O)N(C1CC1)S(=O)(=O)c1ccc(C(F)(F)F)cc1 [Compound 590] |  | 4.37
Cc1noc(C)c1C(=O)N(C1CC1)S(=O)(=O)c1ccc(O)c(O)c1 [Compound 591] |  | 3.72
Cc1noc(C)c1C(=O)N(C1CC1)S(=O)(=O)c1ccc(O)cc1O [Compound 592] |  | 3.41
Cc1noc(C)c1C(=O)N(C1CC1)S(=O)(=O)c1ccc(C(C)(C)C)cc1 [Compound 593] |  | 4.03

The next lines start with the values.

chromatographic logP [1] | chromatographic logP [2] | SMILES
 | 4.82 | CCc1onc(C(C)C)c1C(=O)N(C1CC1)S(=O)(=O)c1ccc(O)c(C(F)(F)F)c1 [Compound 594]
 | 4.77 | CCc1onc(C(C)C)c1C(=O)N(C1CC1)S(=O)(=O)c1ccc(O)c(O)c1 [Compound 595]
 | 4.41 | CCc1onc(C(C)C)c1C(=O)N(C1CC1)S(=O)(=O)c1ccc(O)cc1O [Compound 596]
 | 4.98 | CCc1onc(C(C)C)c1C(=O)N(C1CC1)S(=O)(=O)c1ccc(C(C)(C)C)cc1 [Compound 597]
3 |  | Cc1nocc1C(=O)N(C1CC1)S(=O)(=O)c1cccc(O)c1O [Compound 599]
3.6 |  | Cc1nocc1C(=O)N(C1CC1)S(=O)(=O)c1ccc(O)c(O)c1O [Compound 600]
3.7 |  | Cc1nocc1C(=O)N(C1CC1)S(=O)(=O)c1ccc(Oc2ccccc2)cc1 [Compound 601]
4.2 |  | Cc1nocc1C(=O)N(C1CC1)S(=O)(=O)c1ccc(Oc2ccc(Br)cc2)cc1 [Compound 602]
2.2 |  | Cc1oncc1C(=O)N(C1CC1)S(=O)(=O)c1cccc(O)c1O [Compound 603]
2.6 |  | Cc1oncc1C(=O)N(C1CC1)S(=O)(=O)c1ccc(O)c(O)c1O [Compound 604]
3.4 |  | Cc1oncc1C(=O)N(C1CC1)S(=O)(=O)c1ccc(Oc2ccc(Br)cc2)cc1 [Compound 605]
3.7 |  | Cc1oncc1C(=O)N(C1CC1)S(=O)(=O)c1ccc(Oc2ccccc2)cc1 [Compound 606]
 | 1.97 | Cn1nc(C(=O)N(C2CC2)S(=O)(=O)c2ccccc2O)n(C)c1=O [Compound 608]
 | 2.01 | COCCn1c(C)c(C(=O)N(C2CC2)S(=O)(=O)c2cccc(O)c2)sc1=O [Compound 609]
 | 2.01 | COCCn1c(C)c(C(=O)N(C2CC2)S(=O)(=O)c2ccc(C(F)(F)F)cc2)sc1=O [Compound 610]
 | 1.01 | Cc1c(C(=O)N(C2CC2)S(=O)(=O)c2cccc(Cl)c2)sc(=O)n1C [Compound 611]
 | 2.01 | Cc1c(C(=O)N(C2CC2)S(=O)(=O)c2ccc(C(F)(F)F)cc2)sc(=O)n1C [Compound 612]
 | 2.01 | Cc1c(C(=O)N(C2CC2)S(=O)(=O)c2cccc(O)c2)sc(=O)n1Cc1ccccc1 [Compound 613]
 | 4.08 | Cc1c(C(=O)N(C2CC2)S(=O)(=O)c2ccc(C(F)(F)F)cc2)sc(=O)n1Cc1ccccc1 [Compound 614]
 | 2.01 | CCc1c(C(=O)N(C2CC2)S(=O)(=O)c2cccc(O)c2)sc(=O)n1C1CC1 [Compound 615]

chromatographic logP [1] | chromatographic logP [2] | SMILES
 | 2.01 | CCc1c(C(=O)N(C2CC2)S(=O)(=O)c2ccc(C(F)(F)F)cc2)sc(=O)n1C1CC1 [Compound 616]
 | 2.01 | CC(C)c1c(C(=O)N(C2CC2)S(=O)(=O)c2cccc(O)c2)sc(=O)n1C1CC1 [Compound 617]
 | 4.03 | CC(C)c1c(C(=O)N(C2CC2)S(=O)(=O)c2ccc(C(F)(F)F)cc2)sc(=O)n1C1CC1 [Compound 618]
 | 2.01 | COCCn1c(C)c(C(=O)N(C2CC2)S(=O)(=O)c2ccc(O)c(C(F)(F)F)c2)sc1=O [Compound 619]
 | 2.01 | COCCn1c(C)c(C(=O)N(C2CC2)S(=O)(=O)c2ccc(O)cc2O)sc1=O [Compound 620]
 | 2.01 | COCCn1c(C)c(C(=O)N(C2CC2)S(=O)(=O)c2ccc(C(C)(C)C)cc2)sc1=O [Compound 621]
 | 2.01 | Cc1c(C(=O)N(C2CC2)S(=O)(=O)c2ccc(O)c(C(F)(F)F)c2)sc(=O)n1C [Compound 622]
 | 2.01 | Cc1c(C(=O)N(C2CC2)S(=O)(=O)c2ccc(O)c(O)c2)sc(=O)n1C [Compound 623]
 | 2.01 | Cc1c(C(=O)N(C2CC2)S(=O)(=O)c2ccc(C(C)(C)C)cc2)sc(=O)n1C [Compound 624]
 | 3.01 | Cc1c(C(=O)N(C2CC2)S(=O)(=O)c2ccc(O)c(C(F)(F)F)c2)sc(=O)n1Cc1ccccc1 [Compound 625]
 | 3.01 | Cc1c(C(=O)N(C2CC2)S(=O)(=O)c2ccc(O)c(O)c2)sc(=O)n1Cc1ccccc1 [Compound 626]
 | 4.03 | Cc1c(C(=O)N(C2CC2)S(=O)(=O)c2ccc(O)cc2O)sc(=O)n1Cc1ccccc1 [Compound 627]
 | 3.01 | Cc1c(C(=O)N(C2CC2)S(=O)(=O)c2ccc(C(C)(C)C)cc2)sc(=O)n1Cc1ccccc1 [Compound 628]
 | 3.01 | CCc1c(C(=O)N(C2CC2)S(=O)(=O)c2ccc(Cl)c(C(F)(F)F)c2)sc(=O)n1C1CC1 [Compound 629]
 | 4.08 | CCc1c(C(=O)N(C2CC2)S(=O)(=O)c2ccc(O)c(O)c2)sc(=O)n1C1CC1 [Compound 630]
 | 2.01 | CCc1c(C(=O)N(C2CC2)S(=O)(=O)c2ccc(O)cc2O)sc(=O)n1C1CC1 [Compound 631]
 | 3.01 | CCc1c(C(=O)N(C2CC2)S(=O)(=O)c2ccc(C(C)(C)C)cc2)sc(=O)n1C1CC1 [Compound 632]
 | 3.01 | CC(C)c1c(C(=O)N(C2CC2)S(=O)(=O)c2ccc(O)c(C(F)(F)F)c2)sc(=O)n1C1CC1 [Compound 633]
 | 3.01 | CC(C)c1c(C(=O)N(C2CC2)S(=O)(=O)c2ccc(O)c(O)c2)sc(=O)n1C1CC1 [Compound 634]
 | 2.01 | CC(C)c1c(C(=O)N(C2CC2)S(=O)(=O)c2ccc(O)cc2O)sc(=O)n1C1CC1 [Compound 635]
